Assay results as given in patent publication US12251459B2, “Compositions, formulations, and methods for hair treatment” (Oddity Labs, LLC, priority 2022, dated 2025).

Key:
[1] = test system: human hair follicle dermal papilla cells (hFDPC); assay: Human follicle dermal papilla cells (hFDPC) proliferation assay; assay type: cell-based; conditions: hFDPCs supplemented with BIO, BMP-2 and FGFβ
Description: In Table 8, A represents less than 20% of increased proliferation of hFDPCs, B represents 20-40%, and C represents larger than 40% of increased proliferation of hFDPCs.

bacteria = assay: SOS chromotest (bacteria-based genotoxicity test, β-galactosidase activity); assay type: cell-based; conditions: varying concentrations; 4-NQ as known genotoxin
Experimental: The SOS chromotest is a well-established bacteria-based test for genotoxicity.
(§1) The safety/toxicology profiles of a compound or salt of the present disclosure was evaluated via a series of in vitro genotoxicity assays, including the SOS-chromotest to determine bacterial genotoxicity, and the TK.6 micronucleus assay to determine chromosomal damage and forward mutations. Standard reactive oxygen species (ROS) and caspase 3/7 assay were conducted to determine general cellular toxicity. Moreover, a series of sensitization tests were conducted to predict any potential skin sensitivity. These include the direct peptide reactivity assay to evaluate haptenization, the KeratinoSens reporter assay to determine potential sensitivity via the activation of a cytoprotective pathway, and an immunological assay using human immature monocyte-derived dendritic cells to evaluate any potential immunogenicity.

HepG2 cells = assay: Caspase 3/7 activity in HepG2 cells; assay type: cell-based; conditions: HepG2, >2-log concentration range, versus % v/v-matched DMSO
Experimental: (§2) Cells were treated with either the example compounds or vehicle control containing correspondingly % v/v-matched amounts of DMSO spanning a >2-log concentration range. Data represents mean±s.d. and representative of at least 2 experimental replicates.
as §2, with “HepG2 cells are an immortalized liver cell line commonly used to study apoptosis induced by small molecules. Cells” for “Cells”

[2] = Clinical consumer perception study; assay type: in vivo, human
Experimental: The clinical test was performed by Eurofins|CRL, Inc. The test followed established, standardized procedures for clinical testing designed to ensure the well-being of clinical study subjects and the generation of reliable study data. Subjects were female and ranged in age from 27-65 years. Subjects used a simple, water-based formula containing an example compound, VII-3 (at 0.02% v/v) every 2 days in the morning or night on dry or towel-dried hair. Approximately 2 mL was applied directly to the hairline. No randomization was required for the study and subjects were blinded to the name of the test material.
Photographs of subjects' hair were taken 6 weeks after the treatment with the representative compounds (FIG. 6). Subjects were female and ranged in age from 27-65 years. Subjects used a simple, water-based formula containing an example compound VII-3 (at 0.02% v/v) every 2 days in the morning or night on dry or towel-dried hair. Approximately 2 mL was applied directly to the hairline. No randomization was required for the study and subjects were blinded to the name of the test material. FIG. 6. highlights specific regions of the included participants' scalps, juxtaposing pictures taken before and after the study. Based on clinical surveys, 97% of women reported an improvement in their hair's appearance while 82% reported increased hair growth and thickness.
After the conclusion of the study, subjects completed a Consumer perception questionnaire. Table 24 includes percentages of each response for the corresponding prompt in the questionnaire. The specific response choice is specified within the parentheses below the percentage.

[3] = test system: Human follicle papilla cells; assay: Functional stability: follicle papilla cell proliferation after pH and temperature pre-treatment of the compound; assay type: cell-based; conditions: prepared in DMSO, DMI or 1:1 DMI/ethanol, diluted in pH-adjusted water, varying temperatures, 7 days; cells dosed 5 μg/mL, 48 hr
Experimental: Compound VII-3 was prepared in various solvents (DMSO; dimethyl sulfoxide, DMI; dimethyl isosorbide, or a 1:1 mixture of dimethyl isosorbide and ethanol), the diluted in pH-adjusted water and left at varying temperatures for 7 days. Human follicle papilla cells were dosed at 5 μg/mL with the example compound and further supplemented with 6-bromoindirubin-39-Oxime (BIO), recombinant bone morphogenetic protein-2 (BMP-2), and basic fibroblast growth factor (FGFβ), whose combination was previously found to preserve in vivo dermal papilla gene signatures. Normalized proliferation follicle papilla cell proliferation was analyzed after 48 hr following the treatment with the example compound pre-treated across a range of pH conditions (FIG. 7A) and temperature conditions (FIG. 7B). Data represents mean±s.d. and representative of n=2 donors.

[4] = test system: follicle dermal papilla cells; assay: Reactive oxygen species (ROS) activity in follicle dermal papilla cells; assay type: cell-based; conditions: 5 μg/mL, 24 hr, relative to vehicle control (0.1% v/v DMSO)
Experimental: Normalized reactive oxygen species (ROS) activity in follicle dermal papilla cells were analyzed after treatment with 5 μg/mL example compounds relative to vehicle control (0.1% v/v DMSO) after 24 hr. The increase in ROS levels is harmful to cell homeostasis, structures, and functions and results in oxidative stress.

TK.6 lymphoblasts = assay: TK.6 micronucleus assay; assay type: cell-based
Experimental: as §1
TK.6 lymphoblasts are a well-studied cell line commonly used for gene mutation analyses. They are heterozygous for the thymidine kinase gene (TK) and enable the detection of forward mutations and chromosomal damage, which manifests as micronuclei and are detectable via flow cytometry.
TK.6 cells were dosed with the example compounds or a vehicle control (0.1% v/v DMSO) and cultured with or without S9 metabolic activation for 24 hr. […] Methyl methanesulfonate, a known genotoxic, alkylating agent was used as a positive control for micronuclei detection.
The micronucleus assay was also performed to determine if the compounds are genotoxic by evaluating the presence of micronuclei. […] In combination. […] I-17 elicited genotoxicity at >3.125 μg/mL.

Nrf2-ARE pathway = assay: KeratinoSens Nrf2-ARE reporter assay (ARE-luciferase); assay type: cell-based; conditions: cinnamic aldehyde as known sensitizing compound
Experimental: as §1
The Nrf2-ARE pathway is a master regulator of cytoprotective responses to oxidative stress, and is an early indicator of skin sensitization. Nrf2 (nuclear factor erythroid 2-related factor) is a transcription factor that binds to antioxidant responsive elements (ARE). By fusing ARE to the light-producing luciferase gene, a KeratinoSens Nrf2-ARE reporter assay was performed whereby luciferase signal is directly correlated to Nrf2-ARE pathway activation. Normalized ARE-luciferase activity was measured using a known sensitizing compound (cinnamic aldehyde) and example compounds.

[5] = response: I haven't noticed a change

Q: With `CSc1nc(-c2ccco2)nn1S(C)(=O)=O` [VII-3, 1H-1,2,4-Triazole, 3-(2-furanyl)-1-(methylsulfonyl)-5-(methylthio)-] as the molecule, how does the “Percent Increase Proliferation of hFDPCs (%)” value [1] read?
A: B (B represents 20-40%)

Q: What about the “genotoxic effects in SOS chromotest (normalized β-galactosidase activity)” value (bacteria) of the same molecule?
A: did not exhibit any genotoxic effects

Q: What about the “Normalized caspase 3/7 activity” value (HepG2 cells) of the same molecule?
A: did not exhibit any caspase activation

Q: And the “Since the beginning of the study, I have noticed a decrease of the number of hairs lost in the shower.” value ([2]; response: Agree)?
A: 53.1%

Q: And the “Since the start of the study, I can see more hair in the areas where the serum was applied.” value ([2]; response: Agree)?
A: 53.1%

Q: What about the “Since the beginning of the study, I have noticed a decrease of the number of hairs lost in the shower.” value ([2]; response: Disagree) of the same molecule?
A: 6.3%

Q: What about the “Since the start of the study, I can see more hair in the areas where the serum was applied.” value ([2]; response: Disagree) of the same molecule?
A: 3.1%

Q: And the “Because of the treatment I have received since the start of the study, the appearance of my hair is:” value (shortened to “Because”) ([2]; response: Fuller)?
A: 56.3%

Q: And the “Since the beginning of the study, I have noticed a decrease of the number of hairs lost in the shower.” value [2, 5]?
A: 21.9%

Q: What about the “Since the start of the study, I can see more hair in the areas where the serum was applied.” value [2, 5] of the same molecule?
A: 31.3%

Q: And the “Since the start of the study, how effective do you think the treatment has been in increasing your hair growth/thickness?” value ([2]; response: Not effective at all)?
A: 0%

Q: What about the “Since the start of the study, how effective do you think the treatment has been in slowing down your hair loss?” value ([2]; response: Not effective at all) of the same molecule?
A: 3.1%

Q: What about the “Since the start of the study, how effective do you think the treatment has been in increasing your hair growth/thickness?” value ([2]; response: Not very effective) of the same molecule?
A: 18.8%

Q: And the “Since the start of the study, how effective do you think the treatment has been in slowing down your hair loss?” value ([2]; response: Not very effective)?
A: 15.6%

Q: And the “Since the start of the study, how effective do you think the treatment has been in increasing your hair growth/thickness?” value ([2]; response: Somewhat effective)?
A: 71.9%

Q: What about the “Since the start of the study, how effective do you think the treatment has been in slowing down your hair loss?” value ([2]; response: Somewhat effective) of the same molecule?
A: 53.1%

Q: And the “Because” value ([2]; response: Stronger)?
A: 21.9%

Q: And the “Since the beginning of the study, I have noticed a decrease of the number of hairs lost in the shower.” value ([2]; response: Strongly Agree)?
A: 18.8%

Q: And the “Since the start of the study, I can see more hair in the areas where the serum was applied.” value ([2]; response: Strongly Agree)?
A: 12.5%

Q: And the “Since the beginning of the study, I have noticed a decrease of the number of hairs lost in the shower.” value ([2]; response: Strongly Disagree)?
A: 0%

Q: What about the “Since the start of the study, I can see more hair in the areas where the serum was applied.” value ([2]; response: Strongly Disagree) of the same molecule?
A: 0%

Q: What about the “Because” value ([2]; response: Thicker) of the same molecule?
A: 18.8%

Q: What about the “Because” value ([2]; response: Thinner) of the same molecule?
A: 3.1%

Q: What about the “Since the start of the study, how effective do you think the treatment has been in increasing your hair growth/thickness?” value ([2]; response: Very effective) of the same molecule?
A: 9.4%

Q: And the “Since the start of the study, how effective do you think the treatment has been in slowing down your hair loss?” value ([2]; response: Very effective)?
A: 28.1%

Q: What about the “Because” value ([2]; response: Weaker) of the same molecule?
A: 0%

Q: And the “Subjects with tight hairstyles who noticed less shedding” value ([2]; water-based formula 0.02% v/v every 2 days, 6 weeks, 32 female subjects)?
A: 28/32 (87%)

Q: And the Adverse effects ([2]; water-based formula 0.02% v/v every 2 days, 6 weeks, 32 subjects completed)?
A: 0/32 (0%)

Q: What about the “functional stability (normalized follicle papilla cell proliferation after pre-treatment of the compound)” value [3] of the same molecule?
A: functionally stable across physiologically-relevant pH and temperature ranges

Q: What does the source list for `C=CCc1cc(/C=C2\C(=O)NC(=S)N(c3ccccc3OC)C2=O)cc(OCC)c1O` [I-18]?
A: Percent Increase Proliferation of hFDPCs (%) [1]: B (B represents 20-40%); Normalized reactive oxygen species (ROS) activity [4]: higher than other compounds

Q: With `CCC(=O)N1CCN(c2nnc(-c3ccc(C)cc3)c3ccccc23)CC1` [II-4, 1-Propanone, 1-[4-[4-(4-methylphenyl)-1-phthalazinyl]-1-piperazinyl]-] as the molecule, how does the “Percent Increase Proliferation of hFDPCs (%)” value [1] read?
A: B (B represents 20-40%)

Q: What about the “micronuclei formation / genotoxic effect in TK.6 cells” value (TK.6 lymphoblasts) of the same molecule?
A: do not promote any micronuclei formation

Q: And the “genotoxic effects in SOS chromotest (normalized β-galactosidase activity)” value (bacteria)?
A: did not exhibit any genotoxic effects

Q: And the “Normalized caspase 3/7 activity” value (HepG2 cells)?
A: did not exhibit any caspase activation

Q: Which “Percent Increase Proliferation of hFDPCs (%)” value [1] does the source give for `C=CCc1cc(/C=C2\C(=O)NC(=S)N(c3ccc(OC)cc3)C2=O)cc(OC)c1O` [I-17] here?
A: C (C represents larger than 40% of increased proliferation of hFDPCs)

Q: And the “concentration at which genotoxicity was elicited in TK.6 micronuclei assay” value (TK.6 lymphoblasts; 24 hr)?
A: > 3125 ng/mL

Q: And the “Normalized caspase 3/7 activity” value (HepG2 cells)?
A: significant caspase-3/7 activation at the highest concentration

Q: With `COC(=O)c1c(S(C)(=O)=O)[nH]c(-c2ccccc2)nc1=O` [VII-1, 5- Pyrimidinecarboxylic acid, 1,4-dihydro-6-(methylsulfonyl)-4-oxo-2-phenyl-, methyl ester] as the molecule, how does the “Percent Increase Proliferation of hFDPCs (%)” value [1] read?
A: C (C represents larger than 40% of increased proliferation of hFDPCs)

Q: And the “micronuclei formation / genotoxic effect in TK.6 cells” value (TK.6 lymphoblasts)?
A: do not promote any micronuclei formation

Q: What about the “genotoxic effects in SOS chromotest (normalized β-galactosidase activity)” value (bacteria) of the same molecule?
A: did not exhibit any genotoxic effects

Q: What about the “Normalized caspase 3/7 activity” value (HepG2 cells) of the same molecule?
A: did not exhibit any caspase activation

Q: What about the “sensitizing potential (normalized ARE-luciferase activity)” value (Nrf2-ARE pathway) of the same molecule?
A: exhibited sensitizing potential
